Test results from patent US6673791B2, “Non-nucleoside reverse transcriptase inhibitors” (Boehringer Ingelheim (Canada) Ltd., priority 2001, dated 2004).
pEC50, pIC50: −log10 of the molar value. Where two headings read alike, the source gives them in different places.

What was measured:
[1] = system: WT RT (HIV-1 wild type strain); experiment: EC50 assay, WT RT strain; format: cell-based; conditions: for EC50: Human immunodeficiency virus 1, read-out: EC50 WT RT (nM); for pEC50: wild type, read-out: EC50 WT RT
Description: (§1) Reverse TranscriptASE (RT) Assays
(§2) The assays are as described in WO 01/96338A1, the contents of which are hereby incorporated herein. The results are listed in Tables 8 as IC50(nM) and EC50(nM).

[2] = system: K103N/Y181C (HIV-1 double mutant strain); experiment: EC50 assay, K103N/Y181C strain; format: cell-based; conditions: for EC50: Human immunodeficiency virus 1, read-out: EC50 K103N/Y181C (nM), K103N/Y181C double mutant; for pEC50: K103N/Y181C double mutant, read-out: EC50 K103N/Y181C
Description: as §1, §2

[3] = target: T1, K103N/Y181C double mutant RT (HIV-1 RT) (Human immunodeficiency virus type 1 group M subtype B, UniProt P03366, K702N/Y780C); experiment: biochemical
T1 construct: mutations that occur in the reverse transcriptase segment of the pol gene
Description: (§3) Based upon testing of these compounds, as described below, it is known that they inhibit the RNA-dependent DNA polymerase activity of HIV-1 RT. […] Utilising the Reverse Transcriptase (RT) Assay described below, compounds can be tested for their ability to inhibit the RNA-dependent DNA polymerase activity of HIV-1 RT. Certain specific compounds described in the Examples which appear below, were so tested. The results of this testing appear in Table 4 as IC50 (nM) and Table 5 as EC50 (nM).
as §1, §2

[4] = target: T2, V106A mutant RT (HIV-1 RT) (Human immunodeficiency virus type 1 group M subtype B, UniProt P03366, V705A); experiment: biochemical; conditions: for IC50: IC50 V106A (nM); for pIC50: read-out: IC50 V106A
T2 construct: mutations that occur in the reverse transcriptase segment of the pol gene
Description: as §3, §1, §2

WT RT (HIV-1 RT) = target: T3, WT RT (HIV-1 RT) (Human immunodeficiency virus type 1 group M subtype B, UniProt P03366); experiment: biochemical
T3 construct: mutations that occur in the reverse transcriptase segment of the pol gene
Description: as §3, §1, §2

[5] = target: T4, Y188L mutant RT (HIV-1 RT) (Human immunodeficiency virus type 1 group M subtype B, UniProt P03366, Y787L); experiment: biochemical; conditions: for IC50: IC50 Y188L (nM); for pIC50: read-out: IC50 Y188L
T4 construct: mutations that occur in the reverse transcriptase segment of the pol gene
Description: as §3, §1, §2

[6] = K103N/Y181C double mutant RT, read-out: IC50 K103N/Y181C
[7] = wild type RT, read-out: IC50 WT RT
[8] = read-out: IC50 K103N/Y181C, K103N/Y181C double mutant RT
[9] = read-out: IC50 WT RT, wild type RT

Compound	pIC50 [3]	IC50 [4] [nM]	pIC50 (WT RT (HIV-1 RT))	IC50 [5] [nM]	other results
CCN1c2ncc(CCOc3ccc(C(=O)O)c4ccccc34)cc2C(=O)N(C)c2cccnc21 [Entry 1001]					EC50 [1]: < 100 nM; EC50 [2]: < 100 nM
CCN1c2ncc(CCOc3ccc(C(=O)O)c4ccccc34)cc2C(=O)N(C)c2ccc(Cl)nc21 [Entry 1002]	> 7.00	100 to 1000	> 7.00	100 to 1000	EC50 [1]: < 100 nM; EC50 [2]: < 100 nM
CCN1c2ncc(CCOc3ccc(C(=O)O)c4ccccc34)cc2C(=O)N(C)c2ccc(C)nc21 [Entry 1003]	6.00 to 7.00	> 1000	> 7.00	> 1000	
CCN1c2ncc(CCOc3ccc(C(=O)O)c4ccccc34)cc2C(=O)Nc2c(C)cc(F)nc21 [Entry 1004]	6.00 to 7.00	100 to 1000	> 7.00	> 1000	
CCN1c2ncc(CCOc3ccc(C(=O)O)c4ccccc34)cc2C(=O)Nc2c(C)ccnc21 [Entry 1005]	6.00 to 7.00	100 to 1000	> 7.00	> 1000	
CCN1c2ncc(CCOc3ccc(C(=O)O)c4ccccc34)cc2C(=O)N(C)c2ccc(F)nc21 [Entry 1006]	6.00 to 7.00	> 1000	> 7.00	> 1000	EC50 [1]: < 100 nM; EC50 [2]: < 100 nM
CCN1c2ncc(CCOc3ccc(C(=O)O)c4ccccc34)cc2C(=O)Nc2c(C)cc(Cl)nc21 [Entry 1007]	6.00 to 7.00	100 to 1000	> 7.00	> 1000	EC50 [1]: < 100 nM; EC50 [2]: < 100 nM
CCN1c2ncc(CCOc3ccc(CC(=O)O)c4ccccc34)cc2C(=O)N(C)c2cccnc21 [Entry 1008]					pEC50 [1]: > 7.00; pIC50 [3, 6]: 6.00 to 7.00; pIC50 [4]: < 6.00; pIC50 (WT RT (HIV-1 RT); [7]): > 7.00; pIC50 [5]: < 6.00; pEC50 [2]: > 7.00
CCN1c2ncc(CCOc3ccc(CC(=O)O)c4ccccc34)cc2C(=O)N(C)c2ccc(C)nc21 [Entry 1011]	6.00 to 7.00	> 1000	> 7.00	> 1000	
CCN1c2ncc(CCOc3ccc(CC(=O)O)c4ccccc34)cc2C(=O)Nc2c(C)ccnc21 [Entry 1013]	< 6.00	> 1000	> 7.00	> 1000	
CCN1c2ncc(CCOc3ccc(CC(=O)O)c4ccccc34)cc2C(=O)Nc2c(C)cc(F)nc21 [Entry 1014]	6.00 to 7.00	100 to 1000	> 7.00	> 1000	
CCN1c2ncc(CCOc3ccc(CC(=O)NN)c4ccccc34)cc2C(=O)N(C)c2ccc(NN)nc21 [Entry 1017]			> 7.00		
CCN1c2ncc(CCOc3ccc(CC(N)=O)c4ccccc34)cc2C(=O)N(C)c2cccnc21 [Entry 1018]	> 7.00	100 to 1000	> 7.00	> 1000	
CCN1c2ncc(CCOc3ccc(CCC(=O)O)c4ccccc34)cc2C(=O)Nc2c(C)ccnc21 [Entry 1024]	< 6.00	100 to 1000	> 7.00	> 1000	
CCN1c2ncc(CCOc3ccc(CCC(=O)O)c4ccccc34)cc2C(=O)N(C)c2ccc(C)nc21 [Entry 1026]	6.00 to 7.00	> 1000	> 7.00	> 1000	
CCN1c2ncc(CCOc3ccc(CCC(=O)O)c4ccccc34)cc2C(=O)Nc2c(C)cc(F)nc21 [Entry 1027]	6.00 to 7.00	100 to 1000	> 7.00	> 1000	
CCN1c2ncc(CCOc3ccc(/C=C(\C)C(=O)O)c4ccccc34)cc2C(=O)Nc2c(C)ccnc21 [Entry 1039]	6.00 to 7.00	100 to 1000	> 7.00	> 1000	
CCN1c2ncc(CCOc3ccc(/C=C(\C)C(=O)O)c4ccccc34)cc2C(=O)Nc2c(C)cc(F)nc21 [Entry 1041]	6.00 to 7.00	100 to 1000	> 7.00	> 1000	
CCN1c2ncc(CCOc3ccc(CC(C)C(=O)O)c4ccccc34)cc2C(=O)N(C)c2ccc(F)nc21 (centres unmarked) [Entry 1043]	6.00 to 7.00	> 1000	> 7.00	> 1000	
CCN1c2ncc(CCOc3ccc(CC(C)C(=O)O)c4ccccc34)cc2C(=O)N(C)c2ccc(C)nc21 (centres unmarked) [Entry 1045]	6.00 to 7.00	> 1000	> 7.00	> 1000	

Compound	pIC50 [3]	IC50 [4] [nM]	pIC50 (WT RT (HIV-1 RT))	IC50 [5] [nM]	other results
CCN1c2ncc(CCOc3ccc(CC(C)C(=O)O)c4ccccc34)cc2C(=O)Nc2c(C)ccnc21 (centres unmarked) [Entry 1046]	< 6.00	> 1000	> 7.00	> 1000	
CCN1c2ncc(CCOc3ccc(CC(C)C(=O)O)c4ccccc34)cc2C(=O)Nc2c(C)cc(Cl)nc21 (centres unmarked) [Entry 1047]	6.00 to 7.00	100 to 1000	> 7.00	> 1000	
CCN1c2ncc(CCOc3ccc(NS(C)(=O)=O)c4ccccc34)cc2C(=O)N(C)c2cccnc21 [Entry 2003]	6.00 to 7.00	> 1000	> 7.00	> 1000	EC50 [2]: < 100 nM
CCN1c2ncc(CCOc3cccc4c(S(N)(=O)=O)cccc34)cc2C(=O)N(C)c2cccnc21 [Entry 2004]	> 7.00	100 to 1000	> 7.00	100 to 1000	
CCN1c2ncc(CCOc3ccc(S(=O)(=O)NC(C)=O)c4ccccc34)cc2C(=O)N(C)c2cccnc21 [Entry 2005]					pIC50 [3, 6]: 6.00 to 7.00; pIC50 [4]: < 6.00; pIC50 (WT RT (HIV-1 RT); [7]): > 7.00; pIC50 [5]: < 6.00
CCN1c2ncc(CCOc3ccc(NC(=O)CC(C)(C)C(=O)O)c4ccccc34)cc2C(=O)N(C)c2cccnc21 [Entry 2007]					pIC50 [3, 6]: 6.00 to 7.00; pIC50 [4]: < 6.00; pIC50 (WT RT (HIV-1 RT); [7]): > 7.00; pIC50 [5]: < 6.00
CCN1c2ncc(CCOc3ccc(C(=O)O)c4ccccc34)cc2C(=O)N(C)c2cccnc21 [Entry 2010]	6.00 to 7.00	> 1000	> 7.00	> 1000	
CCN1c2ncc(CCOc3ccc(CCC(=O)O)c4ccccc34)cc2C(=O)N(C)c2cccnc21 [Entry 2011]					pEC50 [1]: > 7.00; pIC50 [3, 6]: 6.00 to 7.00; pIC50 [4]: < 6.00; pIC50 [5]: < 6.00; pEC50 [2]: 6.00 to 7.00
CCN1c2ncc(CCOc3ccc(CC(=O)NS(C)(=O)=O)c4ccccc34)cc2C(=O)N(C)c2cccnc21 [Entry 2012]					pIC50 [3, 6]: < 6.00; pIC50 [4]: < 6.00; pIC50 (WT RT (HIV-1 RT); [7]): > 7.00; pIC50 [5]: < 6.00
CCN1c2ncc(CCOc3ccc(/C=C/C(=O)O)c4ccccc34)cc2C(=O)N(C)c2cccnc21 [Entry 2013]				> 1000	pIC50 [3, 8]: 6.00 to 7.00; pIC50 [4]: < 6.00
CCN1c2ncc(CCOc3ccc(/C=C/C(=O)O)c4ccccc34)cc2C(=O)Nc2c(C)cc(F)nc21 [Entry 2015]		100 to 1000			pIC50 [3, 8]: 6.00 to 7.00; pIC50 (WT RT (HIV-1 RT); [9]): > 7.00; pIC50 [5]: < 6.00
CCN1c2ncc(CCOc3ccc(/C=C/C(=O)O)c4ccccc34)cc2C(=O)N(C)c2ccc(C)nc21 [Entry 2017]		> 1000		> 1000	pIC50 [3, 8]: 6.00 to 7.00; pIC50 (WT RT (HIV-1 RT); [9]): > 7.00
CCN1c2ncc(CCOc3ccc(CC(C)C(=O)O)c4ccccc34)cc2C(=O)N(C)c2cccnc21 (centres unmarked) [Entry 2021]					pIC50 (WT RT (HIV-1 RT); [7]): 6.00 to 7.00
CCN1c2ncc(CCOc3ccc4cc(C(=O)O)ccc4c3)cc2C(=O)N(C)c2cccnc21 [Entry 3001]	6.00 to 7.00	100 to 1000	> 7.00	> 1000	
CCN1c2ncc(CCOc3ccc4cc(CC(=O)O)ccc4c3)cc2C(=O)N(C)c2cccnc21 [Entry 3004]	< 6.00	100 to 1000	> 7.00	> 1000	
CCN1c2ncc(CCOc3ccc(CC(=O)O)c4c3CCCC4)cc2C(=O)N(C)c2cccnc21 [Entry 5006]	6.00 to 7.00	> 1000	> 7.00	> 1000	
CCN1c2ncc(CCOc3cccc4c3CCCN4CC(=O)O)cc2C(=O)N(C)c2cccnc21 [Entry 6001]	< 6.00	> 1000	> 7.00	> 1000	EC50 [1]: 100 to 1000 nM
CCN1c2ncc(CCOc3cccc4c3CCCN4C(=O)CC(=O)O)cc2C(=O)N(C)c2cccnc21 [Entry 6002]			> 7.00		
CCN1c2ncc(CCOc3ccc(C(=O)O)c4c3CCN(C(C)=O)C4)cc2C(=O)N(C)c2cccnc21 [Entry 7004]	6.00 to 7.00	> 1000	> 7.00	> 1000	EC50 [1]: 100 to 1000 nM
CCN1c2ncc(CCOc3ccc(C(=O)O)c4c3CCN(S(C)(=O)=O)C4)cc2C(=O)N(C)c2cccnc21 [Entry 7005]	> 7.00	> 1000	> 7.00	100 to 1000	EC50 [1]: < 100 nM
